Assay results as given in patent US20210198277A1, “AMINE-SUBSTITUTED ARYL OR HETEROARYL COMPOUNDS” (Epizyme, Inc., priority 2016, published 2021).

Tests used:
human EHMT2 913-1193 = target: T1, human EHMT2 913-1193 (Homo sapiens, UniProt Q96KQ7); test: EHMT2 enzyme assay on histone peptide substrate (EHMT2 PEP); format: biochemical; conditions: recombinant human EHMT2 913-1193, histone H3 1-15 peptide, balanced conditions; read-out: EHMT2 PEP (IC50 μM)
T1 construct: recombinant purified human EHMT2 913-1193, Viva; purchased Viva
T1 sequence (Q96KQ7 913-1193): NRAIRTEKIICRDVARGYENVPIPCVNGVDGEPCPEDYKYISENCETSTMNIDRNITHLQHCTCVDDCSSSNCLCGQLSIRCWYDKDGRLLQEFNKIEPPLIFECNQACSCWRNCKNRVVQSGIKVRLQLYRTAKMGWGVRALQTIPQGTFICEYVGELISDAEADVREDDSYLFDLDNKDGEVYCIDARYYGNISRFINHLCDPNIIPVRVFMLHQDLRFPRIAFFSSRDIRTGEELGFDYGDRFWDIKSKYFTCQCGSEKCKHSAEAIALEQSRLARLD
Outline: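 Radiometric methyltransferase read-out: ^3H-methyl transfer from ^3H-SAM onto biotinylated histone peptide, captured on streptavidin Flashplates after 60 min reaction at room temperature. Enzyme 0.031 nM, preincubated 30 min with inhibitor; buffer 20 mM Bicine pH 7.5 with 1 mM TCEP; top compound concentration 50 μM final, 2% DMSO.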

EHMT1 = target: T2, EHMT1 (Homo sapiens, UniProt Q9H9B1); test: EHMT1 enzyme assay on peptide substrate (EHMT1 PEP); format: biochemical; conditions: read-out: EHMT1 PEP (IC50 μM)
T2 sequence (Q9H9B1 1-1298): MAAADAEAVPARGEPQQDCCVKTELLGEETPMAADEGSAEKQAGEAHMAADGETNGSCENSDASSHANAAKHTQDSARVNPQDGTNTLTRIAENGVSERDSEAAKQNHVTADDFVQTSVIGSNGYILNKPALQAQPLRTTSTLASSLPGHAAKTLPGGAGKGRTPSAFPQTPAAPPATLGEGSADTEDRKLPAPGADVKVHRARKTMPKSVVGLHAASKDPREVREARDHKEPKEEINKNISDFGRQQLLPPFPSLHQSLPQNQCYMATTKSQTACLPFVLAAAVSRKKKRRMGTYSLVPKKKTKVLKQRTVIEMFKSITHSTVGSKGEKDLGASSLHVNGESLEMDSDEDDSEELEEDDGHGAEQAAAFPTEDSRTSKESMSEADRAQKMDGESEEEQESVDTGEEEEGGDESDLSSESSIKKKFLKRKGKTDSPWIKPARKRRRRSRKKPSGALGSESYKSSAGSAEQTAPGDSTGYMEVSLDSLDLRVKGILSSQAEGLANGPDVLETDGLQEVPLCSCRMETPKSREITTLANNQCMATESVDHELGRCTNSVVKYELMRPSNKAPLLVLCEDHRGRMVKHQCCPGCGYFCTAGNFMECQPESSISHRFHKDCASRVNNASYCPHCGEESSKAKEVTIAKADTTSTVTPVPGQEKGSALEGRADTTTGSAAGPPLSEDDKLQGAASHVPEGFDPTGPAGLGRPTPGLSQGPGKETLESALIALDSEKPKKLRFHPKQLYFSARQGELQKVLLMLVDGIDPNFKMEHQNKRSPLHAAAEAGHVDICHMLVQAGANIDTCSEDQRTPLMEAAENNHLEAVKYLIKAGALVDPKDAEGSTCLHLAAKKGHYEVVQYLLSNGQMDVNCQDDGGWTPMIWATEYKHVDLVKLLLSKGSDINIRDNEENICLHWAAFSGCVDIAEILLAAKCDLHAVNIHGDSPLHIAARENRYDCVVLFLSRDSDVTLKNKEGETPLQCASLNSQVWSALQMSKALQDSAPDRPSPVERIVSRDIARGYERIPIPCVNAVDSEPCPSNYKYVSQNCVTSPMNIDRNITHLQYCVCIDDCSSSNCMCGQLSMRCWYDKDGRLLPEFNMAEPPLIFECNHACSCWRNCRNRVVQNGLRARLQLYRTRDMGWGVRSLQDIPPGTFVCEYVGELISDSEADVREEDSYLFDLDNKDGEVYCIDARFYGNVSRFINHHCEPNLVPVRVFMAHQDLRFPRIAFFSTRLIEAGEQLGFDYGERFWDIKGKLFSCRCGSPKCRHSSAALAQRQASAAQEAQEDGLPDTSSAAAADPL

Row | Compound | IC50 (human EHMT2 913-1193) [µM] | IC50 (EHMT1) [µM]
1 | CNc1ccnc(Nc2cc(OCCCN3CCCC3)c3cn[nH]c3c2)n1 [Compound 538, N^4-methyl-N^2-(4-(3-(pyrrolidin-1-yl)propoxy)-1H-indazol-6-yl)pyrimidine-2,4-diamine] | 0.1 to 1 | 0.1 to 1
2 | CNc1ccnc(Nc2cc(OCCCN3CCCC3)c3[nH]ncc3c2)n1 [Compound 539] | 1 to 10 | > 10
3 | CNc1ccnc(NC2CCCNC2)n1 (stereo not shown) [Compound 541, N^4-methyl-N^2-(piperidin-3-yl)pyrimidine-2,4-diamine] | > 10 | > 10
4 | CNc1ccnc(NC2CCNCC2)n1 [Compound 542, N^4-methyl-N^2-(piperidin-4-yl)pyrimidine-2,4-diamine] | > 10 | > 10
5 | CCCC1(Nc2nccc(NC)n2)CCCNC1 (stereo not shown) [Compound 544] | > 10 | > 10
6 | CCCC1(Nc2nccc(NC)n2)CCNCC1 [Compound 545] | > 10 | > 10
7 | CNc1ccnc(NC2(C)CCCNC2)n1 (stereo not shown) [Compound 546, N^4-methyl-N^2-(3-methylpiperidin-3-yl)pyrimidine-2,4-diamine] | > 10 | > 10
8 | CNc1ccnc(NC2(C)CCNCC2)n1 [Compound 547, N^4-methyl-N^2-(4-methylpiperidin-4-yl)pyrimidine-2,4-diamine] | > 10 | > 10
9 | CNc1ccnc(N[C@@H]2CC[C@H](N)C2)n1 [Compound 548, N^2-((1R,3S)-3-aminocyclopentyl)-N^4-methylpyrimidine-2,4-diamine] | > 10 | > 10
10 | CCCCN1CCCC(C)(Nc2nccc(NC)n2)C1 (stereo not shown) [Compound 549, N^2-(1-butyl-3-methylpiperidin-3-yl)-N^4-methylpyrimidine-2,4-diamine] | > 10 | > 10
11 | CCCCN1CCC(C)(Nc2nccc(NC)n2)CC1 [Compound 550, N^2-(1-butyl-4-methylpiperidin-4-yl)-N^4-methylpyrimidine-2,4-diamine] | > 10 | > 10
12 | CNc1cc(C)nc(Nc2ccc(OC)c(OCCCN(C)C3CCC3)c2)n1 [Compound 551, N^2-(3-(3-(cyclobutyl(methyl)amino)propoxy)-4-methoxyphenyl)-N^4,6-dimethylpyrimidine-2,4-diamine] | 0.1 to 1 | 0.1 to 1
13 | c1nc(NC2CCNCC2)ncc1OCCCN1CCCC1 [Compound 552] | > 10 | > 10
14 | CN1CCC(COc2cnc(NCC3CCOCC3)nc2)C1 (stereo not shown) [Compound 553] | > 10 | > 10
15 | CN1CCC(COc2ccc(NC3CCNCC3)nc2)C1 (stereo not shown) [Compound 554] | > 10 | > 10
16 | CN1CCC(COc2cnc(NC3CCNCC3)nc2)C1 (stereo not shown) [Compound 555] | > 10 | > 10
17 | c1nc(NC2CCNCC2)ncc1OCC1CCN(C2CC2)C1 (stereo not shown) [Compound 556] | > 10 | > 10
18 | c1nc(NC2CCOCC2)ncc1OCC1CCN(C2CC2)C1 (stereo not shown) [Compound 557] | > 10 | > 10
19 | CNc1cc(C)nc(Nc2cnc(OC)c(OC[C@H]3CCN(C4CC4)C3)c2)n1 [Compound 558] | 0.1 to 1 | < 0.1
20 | CNc1cc(C)nc(Nc2ccc(OC)c(OCC3CN(C(C)C)C3)c2)n1 [Compound 559] | 0.1 to 1 | < 0.1
21 | CCN1CC(C(O)Oc2cc(Nc3nc(C)cc(NC)n3)ccc2OC)C1 (stereo not shown) [Compound 560] | 0.1 to 1 | 0.1 to 1
22 | CNc1cc(C)nc(Nc2ccc(OC)c(O)c2)n1 [Compound 561] | > 10 | > 10
23 | CCN1CC(C(C#N)Oc2cc(Nc3nc(C)cc(NC)n3)ccc2OC)C1 (stereo not shown) [Compound 562] | 1 to 10 | 1 to 10
24 | CNc1cc(C)nc(Nc2ccc(OC)c(OC[C@@H]3CCN(C4CCC4)C3)c2)n1 [Compound 563] | < 0.1 | < 0.1
25 | CCN1CC(COc2cc(Nc3nccc4[nH]ccc34)ncc2OC)C1 [Compound 564] | < 0.1 | < 0.1

Other lines, results leading:

Row | IC50 (human EHMT2 913-1193) [µM] | IC50 (EHMT1) [µM] | Compound
26 | 1 to 10 | 1 to 10 | COc1cc(Nc2nc(C)cc3[nH]ncc23)ncc1OCCCN1CCCC1 [Compound 565]
27 | 1 to 10 | 1 to 10 | CCN1CC(COc2cc(Nc3cc(NC)ncc3F)ncc2OC)C1 [Compound 566]
28 | 1 to 10 | 1 to 10 | CCN1CC(COc2cc(Nc3cc(NC)nc(C)c3F)ncc2OC)C1 [Compound 567]
29 | 0.1 to 1 | < 0.1 | CNc1cc(C)nc(Nc2ccc(OC)c(OC[C@@H]3CCN(C4(C)CC4)C3)c2)n1 [Compound 568]
30 | 0.1 to 1 | < 0.1 | CCN1CC(COc2cc(Nc3cc(NC)cc(C)n3)cnc2OC)C1 [Compound 569]
31 | < 0.1 | < 0.1 | CCN1CC[C@@H](COc2cc(Nc3nc(C)cc(NC)n3)ccc2OC)C1 [Compound 571]
32 | > 10 | > 10 | COc1ccc(NC2CCNCC2)cc1OCCCN1CCCC1 [Compound 572]
33 | 1 to 10 | 1 to 10 | COc1ccc(NC2CCCNC2)cc1OCCCN1CCCC1 (stereo not shown) [Compound 573]
34 | 1 to 10 | 1 to 10 | CNc1cc(C)nc(Nc2ccc(OC)c(OCCCN3CC4(CC4)C3)c2)n1 [Compound 574]
35 | 1 to 10 | 0.1 to 1 | CNc1cc(C)nc(Nc2ccc(OC)c(OCC3CN(C(C)C)C3)c2)n1 [Compound 575]
36 | 0.1 to 1 | < 0.1 | CNc1cc(C)nc(Nc2ccc(OC)c(OCC3CN(C4CCC4)C3)c2)n1 [Compound 576]
37 | 1 to 10 | 0.1 to 1 | CNc1cc(C)nc(Nc2ccc(OC)c(OCC3CN(C4CCCC4)C3)c2)n1 [Compound 577]
38 | 1 to 10 | 1 to 10 | COc1cc(NC2CCCNC2)ccc1OCCCN1CCCC1 (stereo not shown) [Compound 578]
39 | 1 to 10 | 1 to 10 | COc1cc(NC2CCNCC2)ccc1OCCCN1CCCC1 [Compound 579]
40 | > 10 | > 10 | CNc1cc(C)nc(Nc2ccc(OC)c(OCC3CN(C4CCOC4)C3)c2)n1 (stereo not shown) [Compound 580]
41 | 1 to 10 | > 10 | COc1cnc(Nc2cccc3[nH]ncc23)cc1OCCCN1CCCC1 [Compound 581]
42 | > 10 | > 10 | COc1ccc(Nc2nccc3[nH]ncc23)cc1OCCCN1CCCC1 [Compound 582]
43 | 1 to 10 | 1 to 10 | COc1cnc(Nc2ccnc3[nH]ncc23)cc1OCCCN1CCCC1 [Compound 583]
44 | > 10 | > 10 | CCN1CC(COc2cc(Nc3cccc4nncn34)ncc2OC)C1 [Compound 584]
45 | 1 to 10 | 1 to 10 | COc1cnc(Nc2cccc3nccn23)cc1OCCCN1CCCC1 [Compound 585]
46 | 1 to 10 | 1 to 10 | COc1cnc(Nc2cccn3ccnc23)cc1OCCCN1CCCC1 [Compound 586]
47 | < 0.1 | < 0.1 | COc1cc2c(C3CCN(C)CC3)nc(N(C)C)nc2cc1OCCCN1CCCC1 [Compound 587]
48 | > 10 | > 10 | CC(C)N1CC(COc2cnc(NC3CCNCC3)nc2)C1 [Compound 588]
49 | > 10 | > 10 | COc1cnc(Nc2cccc3cncn23)cc1OCCCN1CCCC1 [Compound 589]
50 | < 0.1 | < 0.1 | COc1ccc(Nc2nc(C)cc(NCC3CCOCC3)n2)cc1OCCCN1CCCC1 [Compound 590]
